{"source": "paper PMC8536627", "about": "“Hydrolytic stability of anticancer drugs and one metabolite in the aquatic environment” (Environmental Science and Pollution Research International, 2021)", "key": {"[1]": {"parameters": "method as in Legay et al. [2014]", "settings": "ref Legay et al. [2014]; cited from earlier work"}, "[2]": {"settings": "HPLC water with 4 % DMSO, ref Negreira et al. ([2013a]), cited from earlier work; for Degradation level / loss: 25 °C, 24 h incubation"}, "physchem [3]": {"assay": "physchem", "settings": "for Hydrolytic stability in the preliminary test: pH 4, 7 and 9, 50 °C; for Hydrolytic stability in the preliminary test / Degradation level in the preliminary test: 5 days; for Degradation level in the preliminary test: dark", "experimental": "The incubation was performed in the dark, in order to avoid the influence of the photolysis on degradation of the analytes. The water used for the preparation of buffers was autoclaved, all glassware was clean, flushed with methanol, and dried in high temperature. Samples were closed in glass tubes with a sealed cap. The air from above the solution was removed by a nitrogen stream just before capping. In the preliminary test, solutions of single analytes were prepared in each tested pH: 4, 7, and 9, which is required by the OECD guidelines. There was also a blank sample prepared for each pH. Samples in the preliminary test were prepared in two parallel replicates. Moreover, the complete preliminary test was repeated twice. The preliminary test was performed at 50 °C for 5 days. […] In the case of the extended tests, 7 measuring points were provided during the time of the test. Each measuring point was performed in two parallel replicates. […] The test was conducted for 30 days or to 90 % elimination of a compound. Obtained results were used to determine the hydrolysis rate constant (k) using equation: 1 lnCt/C0=kt\nThe HPLC-UV/Vis technique was applied to determine the level of hydrolytic degradation of the analytes. In the preliminary test, the control and blank samples were analyzed at the beginning and the end of the test. […] In the extended test, the samples collected in the time intervals were analyzed, and peak areas were compared to those obtained at the beginning of the test. This was used to determine the kinetic of this hydrolysis process by using the Equation 1. In general, each analyte was analyzed by a simple HPLC method with UV/Vis detection. Gemini C18 (Phenomenex, USA), 5 μm, 110 Å, 150 mm × 4.6 mm chromatographic column was applied for each method and three different mobile phases were used (water or 0.1 % HCOOH) mixed with the acetonitrile. The conditions applied during the LC-MS analysis with an ion trap detector for the qualitative analysis of the samples collected after the extended tests at 20 and 70 °C are presented in the Table S2."}, "[4]": {"parameters": "method as in Yadav et al. [2012]", "settings": "also under several stress conditions; ref Yadav et al. [2012]; cited from earlier work"}, "physchem [5]": {"assay": "physchem", "type": "physicochemical", "settings": "for half-life: buffer, read-out: t½, extrapolated half-life (converted)", "experimental": "By obtaining at least two rate constants for two different temperatures, it is possible to calculate the rate constants and, in consequence, half-lives at other temperatures, according to the Arrhenius equation: 3 k=A×e^−E/R×Torlnk=−E/R×T+lnA\nTherefore, these equations were applied to extrapolate the obtained results and calculate the rate constants and half-lives of unstable anticancer drugs in more environmentally relevant temperatures (4, 10, or 15 °C), which are typical to natural waters.\nAdditionally, these observations confirm that CP is much more vulnerable for hydrolysis than IF, which is interesting how two isomers (like CP and IF) may differently undergo hydrolysis process. […] If the conclusions were drawn only based on the results from the preliminary experiments (incubation at 50 °C for 5 days), it would be assumed that both compounds, especially CP, are very unstable. […] Moreover, using Equation 3, it was possible to extrapolate the results to determine the rate constants and half-lives at the temperatures 4, 10, and 15 °C, which are ordinary for environmental waters (Table 2)."}, "physchem [6]": {"assay": "physchem", "type": "physicochemical", "settings": "for half-life: buffer", "experimental": "Moreover, the complete preliminary test was repeated twice. […] Each measuring point was performed in two parallel replicates.\nwhere t, time; ct, c0, concentration of the analyte at a time (0 means the beginning of the test); k, rate constant.\nBased on this, the t1/2 was determined by using the equation: 2 t1/2=ln2/k\nwhere t1/2, half-life of the analyte; k, rate constant.\nThe degradation was monitored for 30 days or until 90 % of a compound was degraded. Based on the obtained results (Fig. 4) the constant rates (k) and half-lives (t1/2) have been calculated (Table 1).\nAfter determining the hydrolysis rate constants it was possible to calculate activation energy (Ea) of this process at each pH, either from plotting ln k from T^−1 (Figure 5) when there were three k values obtained for each compound and pH (CP at pH 4, 7, and 9 as well as IF at pH 4) or from the following equation (for IF at pH 7 and 9, where only two k values were obtained) (Table 1): 4 E=Rlnk2−lnk1/1/T1¯−1/T2\nwhere R, gas constant (8.314 J/mol × K); k1, k2, rate constants for different temperatures; T, absolute temperature (K)."}, "[7]": {"parameters": "method as in Muñoz et al. ([1996])", "settings": "20 °C, pH 5; ref Muñoz et al. ([1996]); cited from earlier work"}, "[8]": {"parameters": "method as in Białk-Bielińska et al. [2017]", "settings": "ref Białk-Bielińska et al. [2017]; cited from earlier work"}, "[9]": {"parameters": "method as in Negreira et al. ([2013b])", "settings": "acidification of samples, organic modifier such as 50 % methanol or DMSO, previously tested conditions; ref Negreira et al. ([2013b]); cited from earlier work"}, "[10]": {"parameters": "method as in McElnay et al. ([1988]) and Vrignaud et al. ([2015])", "settings": "ref McElnay et al. ([1988]) and Vrignaud et al. ([2015]); cited from earlier work"}}, "note": "Several values for one entry are separate records, joined by “and”; a condition that tells them apart may be missing. Equal entries are not always repeated. Entries after “also recorded” stand apart in the source; their conditions may differ. Where two headings read alike, the source gives them in different places.", "data": [{"molecule": "O=c1[nH]cc(F)c(=O)[nH]1", "note": "[5-FU, 5-fluorouracil]", "values": [{"measurement": "Stability in aqueous solutions for medication purposes", "setting": "[1]", "value": "stable"}, {"measurement": "Stability in 24 h test", "setting": "[2]; 4 °C, 24 h", "value": "stable"}, {"measurement": "Long-term stability at 4 °C", "setting": "[2]; 4 °C", "value": "stable for 1 month"}, {"measurement": "Stability in 24 h test", "setting": "[2]; 15 °C, 24 h", "value": "still stable"}, {"measurement": "Degradation level / loss", "setting": "[2]", "value": 11, "unit": "%"}, {"measurement": "half-life", "setting": "physchem [3]; buffer", "value": "≥ 365", "unit": "days"}, {"measurement": "Hydrolytic stability in the preliminary test", "setting": "physchem [3]", "value": "hydrolytically stable"}, {"measurement": "Temperature up to which found stable", "setting": "[4]", "value": "up to 275 °C"}]}, {"molecule": "O=P1(NCCCl)OCCCN1CCCl", "note": "(centres unmarked) [IF, ifosfamide]", "values": [{"measurement": "k, extrapolated rate constant", "setting": "physchem [5]; 4 °C, pH 4", "value": "8.3e-05", "unit": "h⁻¹"}, {"measurement": "k, extrapolated rate constant", "setting": "physchem [5]; 4 °C, pH 7", "value": "3e-06", "unit": "h⁻¹"}, {"measurement": "k, extrapolated rate constant", "setting": "physchem [5]; 4 °C, pH 9", "value": "4e-06", "unit": "h⁻¹"}, {"measurement": "k, extrapolated rate constant", "setting": "physchem [5]; 10 °C, pH 4", "value": 0.000107, "unit": "h⁻¹"}, {"measurement": "k, extrapolated rate constant", "setting": "physchem [5]; 10 °C, pH 7", "value": "5e-06", "unit": "h⁻¹"}, {"measurement": "k, extrapolated rate constant", "setting": "physchem [5]; 10 °C, pH 9", "value": "6e-06", "unit": "h⁻¹"}, {"measurement": "k, extrapolated rate constant", "setting": "physchem [5]; 15 °C, pH 4", "value": 0.000199, "unit": "h⁻¹"}, {"measurement": "k, extrapolated rate constant", "setting": "physchem [5]; 15 °C, pH 7", "value": "1.1e-05", "unit": "h⁻¹"}, {"measurement": "k, extrapolated rate constant", "setting": "physchem [5]; 15 °C, pH 9", "value": "1.6e-05", "unit": "h⁻¹"}, {"measurement": "half-life", "setting": "physchem [5]; pH 4, 4 °C, pH 4", "value": 349, "unit": "days"}, {"measurement": "half-life", "setting": "physchem [5]; pH 4, 10 °C, pH 4", "value": 271, "unit": "days"}, {"measurement": "half-life", "setting": "physchem [5]; pH 4, 15 °C, pH 4", "value": 146, "unit": "days"}, {"measurement": "half-life", "setting": "physchem [5]; pH 7, 10 °C, pH 7", "value": 6360, "unit": "days"}, {"measurement": "half-life", "setting": "physchem [5]; pH 7, 15 °C, pH 7", "value": 2580, "unit": "days"}, {"measurement": "half-life", "setting": "physchem [5]; pH 9, 4 °C, pH 9", "value": 6510, "unit": "days"}, {"measurement": "half-life", "setting": "physchem [5]; pH 9, 10 °C, pH 9", "value": 4520, "unit": "days"}, {"measurement": "half-life", "setting": "physchem [5]; pH 9, 15 °C, pH 9", "value": 1860, "unit": "days"}, {"measurement": "Degradation in 30 days", "setting": "physchem [6]; 20 °C, pH 7", "value": "no degradation occurred; also recorded: no changes in the initial concentration; also recorded: completely stable"}, {"measurement": "Degradation in 30 days", "setting": "physchem [6]; 20 °C, pH 9", "value": "no degradation occurred; also recorded: no changes in the initial concentration; also recorded: completely stable"}, {"measurement": "k, hydrolysis rate constant", "setting": "physchem [6]; 20 °C, pH 4", "value": 0.00038, "unit": "h⁻¹"}, {"measurement": "k, hydrolysis rate constant", "setting": "physchem [6]; 50 °C, pH 4", "value": 0.008, "unit": "h⁻¹"}, {"measurement": "k, hydrolysis rate constant", "setting": "physchem [6]; 50 °C, pH 7", "value": 0.0029, "unit": "h⁻¹"}, {"measurement": "k, hydrolysis rate constant", "setting": "physchem [6]; 50 °C, pH 9", "value": 0.0036, "unit": "h⁻¹"}, {"measurement": "k, hydrolysis rate constant", "setting": "physchem [6]; 70 °C, pH 4", "value": 0.059, "unit": "h⁻¹"}, {"measurement": "k, hydrolysis rate constant", "setting": "physchem [6]; 70 °C, pH 7", "value": 0.041, "unit": "h⁻¹"}, {"measurement": "k, hydrolysis rate constant", "setting": "physchem [6]; 70 °C, pH 9", "value": 0.049, "unit": "h⁻¹"}, {"measurement": "half-life", "setting": "physchem [6]; pH 4, 20 °C, pH 4, read-out: Half-life (converted)", "value": "~80", "unit": "days"}, {"measurement": "half-life", "setting": "physchem [6]; pH 4, 20 °C, pH 4, read-out: t½, half-life (converted)", "value": 76.8, "unit": "days"}, {"measurement": "half-life", "setting": "physchem [6]; pH 4, 50 °C, pH 4, read-out: t½, half-life (converted)", "value": 3.6, "unit": "days"}, {"measurement": "half-life", "setting": "physchem [6]; pH 4, 70 °C, pH 4, read-out: t½, half-life (converted)", "value": 0.488, "unit": "days"}, {"measurement": "half-life", "setting": "physchem [6]; pH 7, 50 °C, pH 7, read-out: t½, half-life (converted)", "value": 10.1, "unit": "days"}, {"measurement": "half-life", "setting": "physchem [6]; pH 7, 70 °C, pH 7, read-out: t½, half-life (converted)", "value": 0.704, "unit": "days"}, {"measurement": "half-life", "setting": "physchem [6]; pH 9, 50 °C, pH 9, read-out: t½, half-life (converted)", "value": 7.99, "unit": "days"}, {"measurement": "half-life", "setting": "physchem [6]; pH 9, 70 °C, pH 9, read-out: t½, half-life (converted)", "value": 0.583, "unit": "days"}, {"measurement": "Ea, activation energy of hydrolysis", "setting": "physchem [6]; pH 4", "value": 20.1, "unit": "kcal/mol"}, {"measurement": "Ea, activation energy of hydrolysis", "setting": "physchem [6]; pH 7", "value": 29.21, "unit": "kcal/mol"}, {"measurement": "Ea, activation energy of hydrolysis", "setting": "physchem [6]; pH 9", "value": "29.21 kcal/mol and 28.7 kcal/mol"}, {"measurement": "half-life", "setting": "[7]", "value": "around 620 days"}, {"measurement": "Degradation level in the preliminary test", "setting": "physchem [3]; pH 7, 50 °C", "value": 22.3, "unit": "%"}, {"measurement": "Degradation level in the preliminary test", "setting": "physchem [3]; pH 9, 50 °C", "value": 27.5, "unit": "%"}]}, {"molecule": "CN(Cc1cnc2nc(N)nc(N)c2n1)c1ccc(C(=O)N[C@@H](CCC(=O)O)C(=O)O)cc1", "note": "[MTX, methotrexate]", "values": [{"measurement": "Hydrolytic stability under ecotoxicological test conditions", "setting": "[8]", "value": "hydrolytically stable"}, {"measurement": "Photolytic stability under ecotoxicological test conditions", "setting": "[8]", "value": "susceptible to photolysis"}, {"measurement": "Stability in 24 h test", "setting": "[2]; 4 °C, 24 h", "value": "stable"}, {"measurement": "Concentration decreased to", "setting": "[2]; 4 °C, after 9 days", "value": "around 50%"}, {"measurement": "Disappeared from solution", "setting": "[2]; 15 °C, 24 h", "value": "more than 50%"}, {"measurement": "Degradation level / loss", "setting": "[2]", "value": 65, "unit": "%"}, {"measurement": "Stability after acidification and with organic modifier", "setting": "[9]", "value": "stable"}, {"measurement": "half-life", "setting": "physchem [3]; aqueous buffer", "value": "≥ 365", "unit": "days"}, {"measurement": "Hydrolytic stability in the preliminary test", "setting": "physchem [3]", "value": "hydrolytically stable"}, {"measurement": "Degradation level in the preliminary test", "setting": "physchem [3]; pH 4, 50 °C", "value": 0, "unit": "%"}, {"measurement": "Time of proved stability", "setting": "[10]", "value": "at least 24 h"}]}]}
